According to patent publication EP1163363B1 (priority 1999, dated 2000):

Key:
[1] = target: T1, Yersinia protein tyrosine phosphatase (YOP) (Yersinia enterocolitica, UniProt P15273); format: biochemical
T1 construct: purchased Upstate Biotechnology

Src kinase = target: T2, Src kinase (Homo sapiens, UniProt P12931); test: Solution phase FRET assay of Src kinase activity (rhodamine labelled SHPS-1 peptide / SHP2-GFP); format: biochemical; conditions: 10 µM staurosporine added to the reaction prior to Src enzyme; 3 units of Src kinase, 2 hours at 37°C
T2 construct: purchased Upstate Biotechnology
Method: SHPS-1 peptide labelled with rhodamine is phosphorylated using 3 units of Src kinase (Upstate Biotechnology) in a 40 µl reaction containing 100 µM peptide, 50 mM Tris-HCl pH7.2, 1 mM ATP, 10 mM MgCl2, 10 mM β-mercaptoethanol, 0.1 mg/ml BSA and 0.015%(v/v) Brij 35, over a period of 2 hours at 37°C. Non-phosphorylated control samples are prepared under identical conditions in the absence of the kinase.
SHP2-GFP is diluted to 0.5 µM in assay buffer (50 mM Tris-HCl pH7.2, 10 mM β-mercaptoethanol, 0.5mg/ml BSA, 0.015% Brij 35). 98 µl of this solution is used per assay. Initial readings of the fluorescence of the SHP2-GFP construct are made using 485nm excitation wavelength and 520nm emission wavelength. Rhodamine labelled peptide (2µl of above phosphorylation reactions) is added to the SHP2-GFP solution and formation of FRET followed in real-time by measuring the decrease in fluorescence emission of SHP2-GFP at 520 nm as shown in Figure 13.
Phosphonlation of the peptide is prevented by inhibiting the enzyme, Src, with the potent kinase inhibitor staurosporine. Phosphorylation of the rhodamine labelled SHPS-1 peptide is performed as described above in the presence and absence of 10 µM staurosporine added to the reaction prior to Src enzyme.

T1 sequence (P15273 whole entry): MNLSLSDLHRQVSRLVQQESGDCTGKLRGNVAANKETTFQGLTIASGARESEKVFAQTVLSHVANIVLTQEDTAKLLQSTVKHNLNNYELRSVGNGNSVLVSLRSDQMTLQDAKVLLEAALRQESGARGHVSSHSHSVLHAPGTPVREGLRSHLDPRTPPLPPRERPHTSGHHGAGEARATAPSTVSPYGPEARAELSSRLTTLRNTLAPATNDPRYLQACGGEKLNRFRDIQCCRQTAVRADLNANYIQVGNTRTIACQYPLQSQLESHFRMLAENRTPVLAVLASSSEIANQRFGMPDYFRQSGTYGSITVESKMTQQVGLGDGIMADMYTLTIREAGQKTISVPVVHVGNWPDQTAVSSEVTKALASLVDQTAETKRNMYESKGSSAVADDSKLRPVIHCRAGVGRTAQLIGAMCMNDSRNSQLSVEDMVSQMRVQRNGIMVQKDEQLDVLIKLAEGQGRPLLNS
T2 sequence (P12931 whole entry): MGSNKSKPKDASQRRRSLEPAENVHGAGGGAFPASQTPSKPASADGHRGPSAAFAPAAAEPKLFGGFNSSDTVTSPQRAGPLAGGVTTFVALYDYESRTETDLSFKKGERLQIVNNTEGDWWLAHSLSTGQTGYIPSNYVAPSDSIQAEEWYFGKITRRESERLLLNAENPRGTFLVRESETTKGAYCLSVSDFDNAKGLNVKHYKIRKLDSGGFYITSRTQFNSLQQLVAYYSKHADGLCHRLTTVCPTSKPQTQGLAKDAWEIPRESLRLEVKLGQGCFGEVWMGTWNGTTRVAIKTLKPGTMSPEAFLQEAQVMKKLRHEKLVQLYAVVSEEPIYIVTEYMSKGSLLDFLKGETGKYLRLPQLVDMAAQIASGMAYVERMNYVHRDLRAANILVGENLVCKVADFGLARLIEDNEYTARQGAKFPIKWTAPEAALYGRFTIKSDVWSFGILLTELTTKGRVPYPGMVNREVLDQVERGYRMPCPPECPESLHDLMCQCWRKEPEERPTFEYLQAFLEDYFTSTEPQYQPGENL

Row | SMILES | IC50 [1] | Inhibition of Src phosphorylation of SHPS-1 peptide (formation of FRET partnership with SHP2-GFP) (Src kinase)
1 | [Na+].[Na+].[Na+].[O]=[V]([O-])([O-])[O-] [sodium orthovanadate, Sodium orthovanadate] | 0.25 µM | 
2 | CN[C@@H]1C[C@H]2O[C@@](C)([C@@H]1OC)n1c3ccccc3c3c4c(c5c6ccccc6n2c5c31)C(=O)NC4 [staurosporine] |  | fail to form a FRET partnership
